According to patent US5955481A, “Pyridine type thiazolidines” (Nissan Chemical Industries, Ltd., priority 1994, dated 1999):

What was measured:
KK mouse = experiment: Measurement of Hypoglycemic Effect, KK mouse; type: in vivo; conditions: for % decrease (percentage of reducing blood glucose): KK mouse, 30 mg/kg, oral, 24 hours after administration
Procedure: (§1) KK mouse and KKAy mouse, NIDDM models (male, 6-7 weeks old) (Nakamura, Proc. Jpn. Acad. 38, 348-352, 1962; Iwatsuka et al. Endocrinol Jpn, 17, 23-35, 1970) were purchased from Nihon Clea. They were allowed free access to high-calories' chow (CMF, Oriental Yeast) and water. Around 40 g-weighted mice were examined.
(§2) Blood (20 μl) collected from the retro-orbital sinus was diluted in 60 units heparin sodium-solution and was centrifuged in a microfuge. The supernatant was assayed. The glucose concentration was determined by glucose oxidase method (Glucose Analyzer II, Beckman).
(§3) All test-compounds suspended in 0.5% carboxy-methyl cellulose (CMC)-saline were orally administered in mice. Before and 24 hours after the administration, blood was collected from the retro-orbital sinus, and a blood glucose value was measured in the above-mentioned manner. The hypoglycemic activity was expressed by the percentage of reducing blood glucose calculated before and 24 hours after the administration.

KKA^y mouse = experiment: Measurement of Hypoglycemic Effect, KKAy mouse; type: in vivo; conditions: oral, 24 hours after administration, read-out: % decrease (percentage of reducing blood glucose)
Procedure: as §1, §2, §3

[1] = test system: bovine serum albumin (BSA); experiment: Measurement of Anti-Glycation Effect; type: biochemical; conditions: for % decrease (anti-glycation effect, fluorescence per mg protein, percentage of the control): 5% BSA-0.5M G6P, 37° C., 10 day-incubation; for anti-glycation activities (in words): Test Example 2
Procedure: Because glycated protein is fluorescent, the amount of glycated protein can be determined using fluorescence, according to the previous reports (Doi et al., Proc. Natl. Acad. Sci. U.S.A., 89, 2873-2877, 1992: Mitsuhashi et al., Diabetes, vol. 42, 826-832, 1993). The experimental procedure was modified as follows. Five percent of bovine serum albumin (BSA) containing 0.5M glucose-6-phosphate-2Na (5% BSA-0.5M G6P) was filtration-sterilized (with 0.45 μm-pore size filter) and was incubated at 37° C.; positive control was incubated with 1% dimethyl sulfoxide (DMSO) at 37° C.; blank was incubated at 4° C. All test-compounds dissolved in DMSO (final concentration of DMSO was less than 1%) were added in 5% BSA-0.5M G6P. After 10 day-incubation 5% BSA-0.5M G6P with a compound, positive control and blank were dialyzed against 2L phosphate buffered saline for 24 hours (fractional molecular weight: 12,000-14,000).The dialyzed solution was diluted in water 4 times and was determined the fluorescence (ex. 370 nm-em. 440 nm). The protein concentration of the dialyzed solution (10 μL of which was diluted to 20 times with distilled water) was determined by Lowry-method and the fluorescence was expressed per mg protein. Control (100%) was positive control minus blank. Anti-glycation effect was calculated as the percentage of the control.

[2] = test system: AGE protein on arterial walls; conditions: rat suffering from diabetes; Science, vol. 232, p. 1629 (1986); cited from earlier work

Compound	% decrease (percentage of reducing blood glucose) (KK mouse)	inhibition in vivo at 30 mg/kg (KKA^y mouse)	% decrease (anti-glycation effect, fluorescence per mg protein, percentage of the control) ([1]; 100 μg/ml)	further results
Cc1c(C)c2c(c(C)c1O)CCC(C)(COc1ccc(CC3SC(=O)NC3=O)cc1)O2 (stereo not shown) [CS-045]	24.2%	-3%	10.1%	anti-glycation activities (in words) [1]: did not exhibit anti-glycation activities
COCOc1ccc(CC2SC(=O)NC2=O)nc1 (stereo not shown) [I-2a-2]		39.9%		
COc1ccc(Cl)cc1C(=O)NCCc1ccc(S(=O)(=O)NC(=O)NC2CCCCC2)cc1 [glibenclamide]	-3.6%	-2.5%		hypoglycemic activity (in words) (KK mouse; Test Example 1, KK and KKAy mouse, 30 mg/kg oral): did not exhibit hypoglycemic activity
Cc1oc(-c2ccccc2)nc1C(=O)COc1ccc(C=C2SC(=O)NC2=O)nc1 [I-1a-1, 5-((5-(2-oxo-2-(2-phenyl-5-methyl-4-oxazolyl)ethoxy)-2-pyridyl)methylidene)thiazolidin-2,4-dione]	48.9%	48.6%	42.3%	
Cc1oc(-c2ccccc2)nc1C(=O)COc1ccc(CC2SC(=O)NC2=O)nc1 (stereo not shown) [I-2a-1, 5-((5-(2-oxo-2-(2-phenyl-5-methyl-4-oxazolyl)ethoxy)-2-pyridyl)methyl)thiazolidin-2,4-dione]	65.1%	50%		
Cc1oc(-c2ccccc2)nc1CCC(=O)c1ccc(CC2SC(=O)NC2=O)cc1 (stereo not shown) [CP-86325]	39.4%	39.5%	10.3%	anti-glycation activities (in words) [1]: did not exhibit anti-glycation activities
COCOc1ccc(C=C2SC(=O)NC2=O)nc1 [I-1a-2]			24.1%	
Cc1oc(-c2ccc(-c3ccccc3)cc2)nc1C(O)COc1ccc(C=C2SC(=O)NC2=O)nc1 (stereo not shown) [I-1a-43]		47.3%		
Cc1cccc(-c2nc(C(=O)COc3ccc(CC4SC(=O)NC4=O)nc3)c(C)o2)c1 (stereo not shown) [I-2a-5]		47.7%		
Cc1oc(-c2ccc(-c3ccccc3)cc2)nc1C(O)COc1ccc(CC2SC(=O)NC2=O)nc1 (stereo not shown) [I-2a-31]		52.2%		
Cc1oc(-c2ccc(F)cc2)nc1C(O)COc1ccc(CC2SC(=O)NC2=O)nc1 (stereo not shown) [I-2a-30]		37.2%		
O=C1NC(=O)C(=Cc2ccc(OCc3ccccc3)cn2)S1 [I-1a-3]			34.1%	
N=C(N)NN [aminoguanidine]				% decrease (anti-glycation effect, fluorescence per mg protein, percentage of the control) ([1]; 1 mM): 21.4%; % decrease (anti-glycation effect, fluorescence per mg protein, percentage of the control) ([1]; 10 mM): 48.9%; % decrease (anti-glycation effect, fluorescence per mg protein, percentage of the control) ([1]; 100 mM): 80.2%; prevention of formation of AGE protein on arterial walls (in words) [2]: prevents formation of AGE protein on arterial walls
Cc1ccc(-c2nc(C(O)COc3ccc(CC4SC(=O)NC4=O)nc3)c(C)o2)cc1 (stereo not shown) [I-2a-32]		35.4%		
